Marks after values point to notes of the source that are not given here.
Columns and labels:
[1] = system: L5178Y cells; assay: Induction of apoptosis (DNA ladder) in L5178Y cells after PDT; assay type: cell-based, Mouse; conditions: for Fluence, Minimum Demonstrated Condition to Induce Apoptosis / C × F Ld90, Minimum Demonstrated Condition to Induce Apoptosis: 0.5 μM; for C × F Ld90, Minimum Demonstrated Condition to Induce Apoptosis: product of concentration and fluence; for induction of apoptosis: 1 μM at a fluence of 30 kJ/m^2
Protocol: The cells were used while in exponential growth. Stock solutions of either 0.5 or 1 mM of PcIV, PcXII, PcX, PcXVIII were prepared in dimethylformamide unless otherwise indicated and added to the 10 mL medium at a rate of 1 μL per mL. After allowing 18 hours for uptake of the phthalocyanine into the cells, the flasks containing the cultures were placed on a glass exposure tray above a 500-W tungsten-halogen lamp. The exposure tray was fitted with a 600-nm high-pass filter. Flasks were exposed to various fluences of red light (up to 30 kJ/m^2) at a fluence rate of approximately 74 W/m^2). After irradiation, the cells were collected by centrifugation.
The aliquots were plated in sufficient numbers to produce 50-200 colonies. The dishes were kept in an incubator at 37° C. in an atmosphere of 5% CO2 and 95% air for 10-14 days to allow viable cells to form colonies. Colonies were counted by eye. […] The plating efficiencies of the treated cells are normalized to the plating efficiencies of control cells in each experiment.
Cells were treated with various concentrations of the compounds listed in the table and various light fluences. DNA gels were prepared and examined for the characteristic “ladder” pattern of DNA fragments. For each Pc, the minimum total PDT dose tested (calculated as the product of the minimum phthalocyanine concentration and the minimum fluence) which produced visible DNA fragments is recorded. […] PcXVIII was also added at 0.5 and 1.0 μM.

[2] = system: Chinese hamster V79-379 lung fibroblasts; assay: Uptake of phthalocyanines into V79 cells; conditions: for n Moles/10^6 Cells/μM (composite uptake value): V79 cells, average of all data, asterisk: listed value is for 1 μM, average would be higher
Protocol: Chinese hamster V79-379 lung fibroblasts were grown in monolayer culture in McCoy's 5A medium (Gibco Laboratories, Grand Island, N.Y.) augmented with 10% calf serum and buffered with 20 mM HEPES (pH 7.4).
Total uptake was determined by scraping the phthalocyanine-treated monolayer, collecting the cells on a glass-fiber filter, and extracting the phthalocyanine in ethanol, as previously described by Ramakrishnan, et al., 1989. (Ramakrishnan, N., M. E. Clay, M. F. Horng, A. R. Antunez, & H. H. Evans, “DNA Lesions and DNA Degradation in Mouse Lymphoma L5178Y Cells After Photodynamic Treatment Sensitized by Chloroaluminum Phthalocyanine”, Photochem. Photobiol, in press, 1989). The amount of drug was determined by absorption at 674 nm and expressed relative to the number of cells, as measured in a Coulter cell counter on an aliquot of the cell population. Controls included cells not treated with drug, medium alone, and drug-containing medium without cells.
The cells were treated with 1 μM AlPcCl (from Eastman Kodak, Rochester, N.Y.) or with phthalocyanine compositions I-VI (0.5-1.0 μM final concentration in the medium) for 18 hours by adding the appropriate volume of a 1.0 mM stock solution in dimethylformamide (DMF) to the culture medium. The growth medium was replaced with 4 mL Hank's balanced salt solution (HBSS), and the cells were irradiated. The light source was a 500 W tungsten-halogen lamp located approximately 29 inches below the surface of a glass exposure tray. The visible light administered to the cells was filtered to allow passage of only that portion of the visible spectrum above 600 nm (Lee Primary red filter No. 106, Vincent Lighting, Cleveland, Ohio). The fluence rate was approximately 0.074 kJ/m^2/s at the level of the cell monolayer.
V79 cells Chinese hamster lung fibroblasts were cultured using the cell culture methods described above. The phthalocyanines listed in table 2 were added to the cultures typically at concentrations of 1 μM, 2 μM, and/or 4 μM and incubated for 18 hours, after which aliquots of the cells were counted and other aliquots were collected on a glass fiber filter. When the filters were dry, the phthalocyanines were extracted into ethanol and the absorption determined at the peak wavelength, usually 668 nm. Values were converted to nmoles taken up by 10^6 cells, using an extinction coefficient of 2.93×10^5.

[3] = system: Chinese hamster V79-379 lung fibroblasts; assay: Clonogenic cell survival of V79 cells after photodynamic treatment; assay type: cell-based; conditions: for LD 90 (light dosage that kills 90% of cells): 18 hours, 675 nm red light, VII# preplated data only, XXI* not totally soluble at 0.5 mM
Protocol: Cells were irradiated at a density of approximately 2×10^6 per 25 cm^2 flask. Immediately after irradiation, the cell monolayer was treated with trypsin, and appropriate aliquots were plated in triplicate to give 100 to 200 colonies in each 10-cm Petri dish. Cell survival was determined by the ability of the cells to form colonies containing at least 50 cells. The response of cells treated with 1 μM AlPcCl and light was compared in each experiment.
Photocytotoxicity of the phthalocyanines compounds I to VI was also assessed by clonogenic assay (Table 1, FIG. 1). In all experiments, 1 μM AlPcCl was included for comparison purposes. From the survival curves (FIG. 1), the fluence reducing the cell survival to 10% (F10) was obtained. The ratio of the F10 for AlPcCl and the F10 for the test compound is recorded in Table 1. Compounds I and II appear to be nearly as efficient photosensitizers as AlPcCl, while compound IV (assayed at half the concentration) was almost twice as efficient as the standard AlPcCl. […] However, in spite of the low efficiency of compound V in inhibiting cell growth, survival measurements were made for this compound, because it was taken up into V79 cells somewhat more efficiently than compounds III and VI.
In order to take differences in cellular uptake into consideration in the assessment of the relative efficiency of these phthalocyanines as photosensitizers of V79 cells, the survival data were replotted against the product of intracellular phthalocyanine concentration and light fluence (FIG. 2). From these curves, the product of intracellular concentration and light fluence reducing survival to 10% (CF10) was obtained, and comparisons of the values for AlPcCl and the test compounds are recorded in Table 1. By this and the other criteria, compound IV appears to be the most efficient photosensitizer. However, when consideration is given to the lesser cell uptake of compound V, it appears to be about as strong a photosensitizer as compound IV.
Using the cell culture methods described above, V79 cells Chinese hamster lung fibroblasts were treated with either 0.5 or 1.0 μM of the phthalocyanines listed in Table 3. About 18 hours thereafter, the cells were irradiated with increasing doses of 675 nm broad band red light from a 500 W tungsten-halogen lamp fitted with a 600 nm high pass filter, to determine the light dosage that would kill 90% of the phthalocyanine treated cells. Where 90% of the cells were not killed, the maximum percent of cells killed were determined, (expressed as % survival) and the related light dosage recorded.

Row | Compound | Uptake Into V79 Cells, 1 μM ([2]; 18 hours) [n Moles/10^6 cells] | Uptake Into V79 Cells, 4 μM ([2]; 18 hours) [n Moles/10^6 cells] | n Moles/10^6 Cells/μM (composite uptake value) [2] | also measured
1 | C[Si](C)(CCCCN)O[Si]1(O[Si](C)(C)CCCCN)n2c3c4ccccc4c2N=C2N=C(N=c4c5ccccc5c(n41)=NC1=NC(=N3)c3ccccc31)c1ccccc12 [Compound VII, SiPc[OSi(CH3)2(CH2)4NH2]2] | 0.2 ± 0.03 | 1.1 ± 0.5 | 0.2 n Moles/10^6 Cells/μM | Fluence, Minimum Demonstrated Condition to Induce Apoptosis [1]: 3.0 kJ/m^2; C × F Ld90, Minimum Demonstrated Condition to Induce Apoptosis [1]: 1.5 kJ/m^2; LD 90 (light dosage that kills 90% of cells) ([3]; 0.5 μM): 4 kj/m^2
2 | C[Si](C)(CCCCNC(=S)N[C@@H]1O[C@H](CO)[C@@H](O)[C@H](O)[C@H]1O)O[Si]1(O[Si](C)(C)CCCCNC(=S)N[C@@H]2O[C@H](CO)[C@@H](O)[C@H](O)[C@H]2O)n2c3c4ccccc4c2N=C2N=C(N=c4c5ccccc5c(n41)=NC1=NC(=N3)c3ccccc31)c1ccccc12 [Compound XI, SiPc[OSi(CH3)2(CH2)4NHCSNHC6H111O5]2] | 0.1 | 0.3 ± 0.1 | 0.1 n Moles/10^6 Cells/μM | induction of apoptosis [1]: did not induce apoptosis; Maximum Effect (% survival at kj/m^2) ([3]; 1 μM, at 20 kj/m^2): 100% at 20
3 | CC(=O)OCCC[Si](C)(C)O[Si]1(O)n2c3c4ccccc4c2N=C2N=C(N=c4c5ccccc5c(n41)=NC1=NC(=N3)c3ccccc31)c1ccccc12 (centres unmarked) [Compound XIII, HOSiPcOSi(CH3)2(CH2)3OCOCH3] |  | 1.7 ± 0.3 | 0.4 n Moles/10^6 Cells/μM | Maximum Effect (% survival at kj/m^2) ([3]; 1 μM, at 15 kj/m^2): 88% at 15
4 | CCCCCCCCCCCC[N+](C)(C)CCC[Si](C)(C)O[Si]1(O[Si](C)(C)CCC[N+](C)(C)CCCCCCCCCCCC)n2c3c4ccccc4c2N=C2N=C(N=c4c5ccccc5c(n41)=NC1=NC(=N3)c3ccccc31)c1ccccc12 [Compound XIV, SiPc[OSi(CH3)2(CH2)3N^+(CH3)2(CH2)11CH3]22I^−] | 0.03 ± 0.01 | 0.05 ± 0.01 | <0.05 n Moles/10^6 Cells/μM | induction of apoptosis [1]: did not induce apoptosis; Maximum Effect (% survival at kj/m^2) ([3]; 1 μM, at 10 kj/m^2): 93% at 10
5 | C[Si](C)(CCCN1CCOCC1)O[Si]1(O)n2c3c4ccccc4c2N=C2N=C(N=c4c5ccccc5c(n41)=NC1=NC(=N3)c3ccccc31)c1ccccc12 (centres unmarked) [Compound XIX, HOSiPcOSi(CH3)2(CH2)3NC4H8O] | 0.3 ± 0.1 | 2.4 ± 0.5 |  | Maximum Effect (% survival at kj/m^2) ([3]; 1 μM, at 10 kj/m^2): 81% at 10
6 | CCN(CC)c1ccc2c(c1)Oc1cc(N(CC)CC)ccc1C21c2ccccc2C(=O)N1CCCC[Si](C)(C)O[Si]1(O[Si](C)(C)C(C)(C)C)n2c3c4ccccc4c2N=C2N=C(N=c4c5ccccc5c(n41)=NC1=NC(=N3)c3ccccc31)c1ccccc12 (centres unmarked) [Compound XV, (CH3)3C(CH3)2SiOSiPcOSi(CH3)2(CH2)4NCOC27H30N2O] | 0.01 ± 0.01 | 0.14 ± 0.12 | <0.05 n Moles/10^6 Cells/μM | induction of apoptosis [1]: did not induce apoptosis; Maximum Effect (% survival at kj/m^2) ([3]; 4 μM, at 20 kj/m^2): 81% at 20
7 | C[Si](C)(CCCO)O[Si]1(O)n2c3c4ccccc4c2N=C2N=C(N=c4c5ccccc5c(n41)=NC1=NC(=N3)c3ccccc31)c1ccccc12 (centres unmarked) [Compound XVII, HOSiPCOSi(CH3)2(CH2)3OH] |  | 1.7 ± 0.2 | 0.4 n Moles/10^6 Cells/μM | Maximum Effect (% survival at kj/m^2) ([3]; 1 μM, at 10 kj/m^2): 19% at 10
8 | CCCCCCCCCCCC[N+](C)(C)CCC[Si](C)(C)[O][Al]1[n]2c3c4ccccc4c2N=C2N=C(N=c4c5ccccc5c([n]41)=NC1=NC(=N3)c3ccccc31)c1ccccc12.[I-] [Compound XXI, AlPcOSi(CH3)2(CH2)3N^+(CH3)2)(CH2)11CH3I^−] | 1.2 ± 0.2 | 5.8 ± 0.4 | 1.3 n Moles/10^6 Cells/μM | LD 90 (light dosage that kills 90% of cells) ([3]; 0.5 μM): 15* kj/m^2
9 | CN(C)CCCCCCCC[Si](C)(C)O[Si]1(O)n2c3c4ccccc4c2N=C2N=C(N=c4c5ccccc5c(n41)=NC1=NC(=N3)c3ccccc31)c1ccccc12 (centres unmarked) [Compound XXII, HOSiPcOSi(CH3)2(CH2)8N(CH3)2] |  |  |  | Fluence, Minimum Demonstrated Condition to Induce Apoptosis [1]: 10.0 kJ/m^2; C × F Ld90, Minimum Demonstrated Condition to Induce Apoptosis [1]: 5.0 kJ/m^2; LD 90 (light dosage that kills 90% of cells) ([3]; 0.5 μM): 10 kj/m^2
10 | C[Si](C)(CCCN1CCSCC1)O[Si]1(O)n2c3c4ccccc4c2N=C2N=C(N=c4c5ccccc5c(n41)=NC1=NC(=N3)c3ccccc31)c1ccccc12 (centres unmarked) [Compound XXIV, HOSiPCOSi(CH3)2(CH2)3NC4H8S] | 0.003 ± 0.001 | 1.3 ± 0.1 | <0.05* n Moles/10^6 Cells/μM | Maximum Effect (% survival at kj/m^2) ([3]; 0.5 μM, at 10 kj/m^2): 100% at 10
11 | CCCCN(CCCC)CCC[Si](C)(C)O[Si]1(O)n2c3c4ccccc4c2N=C2N=C(N=c4c5ccccc5c(n41)=NC1=NC(=N3)c3ccccc31)c1ccccc12 (centres unmarked) [Compound XXV, HOSiPcOSi(CH3)2(CH2)3N(CH2)3CH3)2] | 0.02 ± 0.02 | 1.5 ± 0.3 | <0.05* n Moles/10^6 Cells/μM | Maximum Effect (% survival at kj/m^2) ([3]; 0.5 μM, at 8 kj/m^2): 87% at 8
12 | C[Si](C)(CCCN=C=S)O[Si]1(O)n2c3c4ccccc4c2N=C2N=C(N=c4c5ccccc5c(n41)=NC1=NC(=N3)c3ccccc31)c1ccccc12 (centres unmarked) [Compound XXVI, HOSiPcOSi(CH3)2(CH2)3NCS] |  |  |  | Maximum Effect (% survival at kj/m^2) ([3]; 1 μM, at 30 kj/m^2): 100% at 30
13 | CN(C)CCCN(CCCN(C)C)CCC[Si](C)(C)O[Si]1(O)n2c3c4ccccc4c2N=C2N=C(N=c4c5ccccc5c(n41)=NC1=NC(=N3)c3ccccc31)c1ccccc12 (centres unmarked) [Compound XXVII, HOSiPcOSi(CH3)2(CH2)3N[(CH2)3N(CH3)2]2] | 1.8 | 5.0 ± 0.01 | 1.5 n Moles/10^6 Cells/μM | LD 90 (light dosage that kills 90% of cells) ([3]; 0.5 μM): 6.8 kj/m^2
14 | CCCCN1CCN(CCC[Si](C)(C)O[Si]2(O)n3c4c5ccccc5c3N=C3N=C(N=c5c6ccccc6c(n52)=NC2=NC(=N4)c4ccccc42)c2ccccc23)CC1 (centres unmarked) [Compound XXXI, HOSiPCOSi(CH3)2(CH2)3NC4H8N(CH2)3CH3] |  |  | 0.3 n Moles/10^6 Cells/μM | Uptake Into V79 Cells, 2 μM ([2]; 2 μM, 18 hours): 0.61 ± 0.1 n Moles/10^6 cells; Maximum Effect (% survival at kj/m^2) ([3]; 0.5 μM, at 10 kj/m^2): 30% at 10

Source: patent US8211883B2, “Topical delivery of phthalocyanines” (priority 2004, dated 2012)
